Measured values taken from patent publication US9126993B2, “Glucosylceramide synthase inhibitors” (GENZYME CORPORATION, priority 2011, dated 2015).

Legend:
[1] = system: WT mice; assay: In utero exposure: brain GluCer in newborn WT mice; format: in vivo, mouse
Experimental: (§1) To determine if further benefits could be achieved by prenatal exposure to GZ 161, a subset of pregnant K14 females received GZ 161 in food using a formulation calculated to provide 20 mg/kg/day during the final 5-7 days of gestation. Females receiving GZ 161 were switched to standard diet after delivery and the pups received daily IP injections of GZ 161 at a dose of 5 mg/kg (10 μl per gram of body weight) starting at P 1. A set of WT pups born to females receiving the drug or standard formula was sacrificed immediately after birth to determine whether in utero exposure to GZ 161 could reduce brain GSL levels.
Quantitative sphingolipid analysis was performed by liquid chromatography and tandem mass spectrometry (LC/MS/MS) as previously described in Merrill et al., Methods 36: 207-224 (2005). Briefly, 10 μl of brain tissue homogenate (tissue weight/water:100 mg/ml) was extracted with 1.00 ml of an organic solvent mixture (97% acetonitrile, 2% methanol, and 1% acetic acid, v/v) and vortexed vigorously for 10 min. Extracted sphingolipids (GluCer and GluSph) were directly separated by hydrophilic liquid chromatography (Atlantis HILIC column, Waters Corp.) and analyzed by triple quadrupole tandem mass spectrometry (API 4000, Applied Biosystems/MDS SCIEX) and compared with sphingolipid standards (Matreya, LLC; Pleasant Gap, Pa.)
Values shown correspond to means and error bars represent standard error of the mean. Comparisons between groups were analyzed by a one-way analysis of variance followed by Tukey's multiple comparison test. Comparison of substrate reduction in utero was analyzed by the unpaired t test with Welch's correction. Kaplan-Meier survival curves were analyzed using the log-rank test equivalent to the Mantel-Haenszel test. All statistical analyses were performed using GraphPad Prism v4.0 (GraphPad Software, San Diego, Calif.). Differences between group means with p<0.05 were considered significant.

[2] = system: K14 mice; assay: Survival of K14 mice; format: in vivo, mouse; conditions: GZ 161 5 mg/kg IP daily from P4, combination: plus ICV rhGC at P1, 2, 3
Experimental: as §1
An animal model of neuropathic Gaucher disease (nGD) identified as K14 were cryoanesthesized and received 2 μl bilateral intracerebroventricular (ICV) injections of either rhGC at 2 mg/ml or vehicle as previously described. (Cabrera-Salazar et al. (2010)) The injected pups were monitored for recovery and returned to the mother following the procedure.
K14 mice received daily intraperitoneal injections of GZ 161 at a dose of 5 mg/kg of body weight as described above. A separate cohort of animals also received ICV injections of GC at postnatal days 1, 2 and 3 followed by daily IP injections of GZ 161. […] All animals were monitored daily for the development of neurological complications. […] This time point was recorded as end of life and analyzed using Kaplan-Meier plots. […]

SMILES: CC(C)(NC(=O)OC1CN2CCC1CC2)c1cccc(-c2ccc(F)cc2)c1 (stereo not shown) [GZ 161, Quinuclidin-3-yl(2-(4′-fluoro-[1,1′-biphenyl]-3-yl)propan-2-yl)carbamate]
- decrease in GluCer levels in the newborn mouse brain (P0) ([1]; WT dams treated, 20 mg/kg/day in food): ~5 fold
- crossing the blood/placental barrier ([1]; inferred from reduced GluCer in newborn brain after dosing pregnant WT mice): appears to cross the blood/placental barrier
- GluCer load in whole brain homogenates at birth (P0) ([1]; pregnant WT mice, 20 mg/kg/day in food): reduces the GluCer load
- median lifespan [2]: 18 days
